Laboratory results taken from PubChem BioAssay (NCI).
Several values for one entry are separate records, joined by “and”; a condition that tells them apart may be missing. Equal entries are not always repeated.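 Following 48 hours of exposure in 96-well plates, responses at five concentrations were used to interpolate endpoints linearly. The concentration for 50% growth inhibition is given as GI50. At the TGI there is no net growth.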

How the values were obtained:
Assay in all cases: NCI-60 cell line screen, 48 h
CCRF-CEM leukemia = system: CCRF-CEM leukemia
ACHN renal = system: ACHN renal
NCI-H460 lung = system: NCI-H460 lung
SK-MEL-5 melanoma = system: SK-MEL-5 melanoma
SNB-19 CNS = system: SNB-19 CNS
HOP-62 NSCLC = system: HOP-62 NSCLC
NCI/ADR-RES ovarian = system: NCI/ADR-RES ovarian
UO-31 renal = system: UO-31 renal
SF-268 CNS = system: SF-268 CNS
A549 NSCLC = system: A549 NSCLC

Row | Compound | GI50 (CCRF-CEM leukemia) | TGI (CCRF-CEM leukemia) [µM] | GI50 (ACHN renal) | TGI (ACHN renal) | GI50 (NCI-H460 lung) | TGI (NCI-H460 lung) | GI50 (SK-MEL-5 melanoma) | TGI (SK-MEL-5 melanoma) | GI50 (SNB-19 CNS) | TGI (SNB-19 CNS) | GI50 (HOP-62 NSCLC) [µM] | TGI (HOP-62 NSCLC) | GI50 (NCI/ADR-RES ovarian) | TGI (NCI/ADR-RES ovarian) [µM] | GI50 (UO-31 renal) | TGI (UO-31 renal) [µM] | GI50 (SF-268 CNS) | TGI (SF-268 CNS) | GI50 (A549 NSCLC) | TGI (A549 NSCLC)
1 | COc1c(O)c2c3c(c1OC)-c1ccccc1CC3N(S(=O)(=O)c1ccc(C)cc1)CC2 (centres undefined) | 1.34 µM | 4.94 | 2.91 µM | > 50 µM | 1.58 µM | > 50 µM | 1.77 µM | > 50 µM | 3.29 µM | > 50 µM | 2.77 | > 50 µM | 1.49 µM | 4.54 | 2.02 µM | > 50 | 4.56 µM | > 50 µM | 2 µM | > 50 µM
2 | COc1ccc(-c2cc(-c3ccccc3)nc(NCCNc3ccnc4cc(Cl)ccc34)n2)cc1 | 0.306 µM | 1.21 | 1.7 µM | 3.16 µM | 1.92 µM | 3.72 µM | 1.79 µM | 3.3 µM | 1.77 µM | 3.68 µM | 1.87 | 3.7 µM | 1.71 µM | 3.79 | 1.42 µM | 2.93 | 1.78 µM | 3.62 µM | 1.82 µM | 3.55 µM
3 | Cn1ccnc1C(=O)/C=C/c1ccc(C(=O)Nc2c(F)c(F)c(F)c(F)c2F)cc1 | 1.68 µM | 4.95 | 1.65 µM | 3.01 µM | 1.78 µM | 5.11 µM | 1.79 µM | 3.28 µM | 1.56 µM | 3.24 µM | 2.77 | 8.71 µM | 3.09 µM | 12.9 | 1.47 µM | 2.79 | 1.81 µM | 4.42 µM | 1.79 µM | 4.16 µM
4 | Nc1nc(=S)c2[nH]cnc2[nH]1 | 0.227 µM and 0.314 µM and 0.488 µM | – | 0.89 µM and 4.03 µM | 41.8 µM and 104 µM | 0.332 µM and 0.989 µM | 7 µM and 16.8 µM and 19.8 µM | 1.59 µM and 2.68 µM and 6.68 µM | – | 39.2 µM and 89 µM and 48.6 µM | > 100 µM and 241 µM and > 250 µM | 0.472 | > 31.8 µM and 29.6 µM and 94.9 µM | 0.37 µM and 0.421 µM and 0.96 µM | – | 0.43 µM and 0.823 µM and 0.488 µM | – | 0.525 µM and 0.926 µM | > 100 µM and 149 µM and 84 µM | 2.29 µM and 4.7 µM and 5.85 µM | > 57.7 µM and 105 µM and 85.1 µM
5 | COc1ccc(/C=C/C(C)=N/OCC(=O)Nc2ccc(Cl)cc2)cc1 | 2.41 µM | 29.9 | 1.94 µM | > 38.9 µM | 3.1 µM | 16.7 µM | 2.36 µM | 7.98 µM | 3.16 µM | > 60.1 µM | 5.06 | 27.5 µM | 2.9 µM | 15.3 | 1.67 µM | 22 | 4.2 µM | 49.4 µM | 3.06 µM | 45.6 µM
6 | COc1cc(/C=C2\C(=O)N(C)c3ccccc32)cc(OC)c1OC | 5.42 µM | 87.9 | 14.7 µM | 62.8 µM | 10.8 µM | 64.1 µM | 10.1 µM | 27.8 µM | 24.7 µM | > 100 µM | 20.2 | 54 µM | 13.7 µM | 56.7 | 22.7 µM | > 100 | 0.793 µM | > 100 µM | 26.3 µM | > 100 µM
7 | COc1cc(OC)cc(-c2ccc(-c3ccc(C(=N)N)cn3)s2)c1 | 2.71 µM | 7.29 | 1.81 µM | 3.2 µM | 1.87 µM | 3.45 µM | 1.77 µM | 3.16 µM | 1.8 µM | 3.59 µM | 1.8 | 3.67 µM | 3.27 µM | 11.6 | 1.65 µM | 3.31 | 1.73 µM | 3.35 µM | 2.19 µM | 4.69 µM
8 | Cc1ccnc(Nc2ccc([N+](=O)[O-])c(NCCN3CCOCC3)n2)c1 | 0.0182 µM and 0.0265 µM | 20.6 | 0.00744 µM | 40.8 µM | 0.00431 µM | > 100 µM | 0.00564 µM | 0.206 µM and 0.315 µM | 0.0312 µM | – | 0.00657 | 71.8 µM | 0.00429 µM | – | 0.0461 µM | 30.7 | 0.00926 µM and 0.059 µM | 42.4 µM | 0.0141 µM | > 100 µM
9 | COc1ccc(Cc2nc3cc(OC)c(OC)cc3c(=O)[nH]2)cc1 | 6.53 µM | > 100 | 9.14 µM | > 100 µM | 15.3 µM | > 100 µM | 9.33 µM | 28.8 µM | 7.23 µM | > 100 µM | 8.69 | > 81.5 µM | 12.4 µM | 59 | 4.66 µM | > 100 | 3.52 µM | > 45.6 µM | 3.61 µM | > 54.3 µM
10 | O=C1CCS/C(=N/S(=O)(=O)c2ccc(N3N=C4c5ccccc5CC4C3c3cccs3)cc2)N1Cc1ccccc1 (centres undefined) | 28 µM | 75.7 | 14.9 µM | 32.9 µM | > 100 µM | > 100 µM | 14.1 µM | 28.8 µM | 22.3 µM | 77.7 µM | 18.6 | 34 µM | 20.8 µM | 40.1 | 28.3 µM | > 100 | > 100 µM | > 100 µM | 14.4 µM | 35.8 µM
11 | COc1ccc(/C(C)=C(\c2ccc(Cl)cc2)c2ccc(OCCN3CCCCCC3)cc2)cc1F | 4.51 µM | > 16.7 | 5.19 µM | > 16.7 µM | 2.56 µM | 5.4 µM | 2.89 µM | 5.27 µM | 5.13 µM | > 16.7 µM | 3.33 | 6.72 µM | 4 µM | 12.4 | 2.17 µM | 4.47 | 6.42 µM | > 16.7 µM | 5.27 µM | > 16.7 µM
12 | COC(=O)[C@H](Cc1cn(C)cn1)NC(=O)[C@@H](NC(=O)Nc1cc(C(F)(F)F)cc(C(F)(F)F)c1)C(C)C | 3.15 µM | > 10 | > 10 µM | > 10 µM | 3.53 µM | > 10 µM | 2.98 µM | > 10 µM | 6.71 µM | > 10 µM | 2.91 | 9.07 µM | > 10 µM | > 10 | > 10 µM | > 10 | 2.02 µM | 4.87 µM | > 10 µM | > 10 µM
